Results: paper PMC5464911, “SEL120-34A is a novel CDK8 inhibitor active in AML cells with high levels of serine phosphorylation of STAT1 and STAT5 transactivation domains” (Oncotarget, 2017)
Like-named read-outs stand apart in the source and are kept apart here.

Legend:
CDK9/CycT1 = molecular target: T1, CDK9/CycT1 (Homo sapiens, UniProt P50750); assay: CDK9/CycT1 kinase activity assay (ProQinase); assay type: biochemical; conditions: for remaining activity at 1 µM: Km ATP
T1 construct: purchased ProQinase
T1 sequence (P50750 whole entry): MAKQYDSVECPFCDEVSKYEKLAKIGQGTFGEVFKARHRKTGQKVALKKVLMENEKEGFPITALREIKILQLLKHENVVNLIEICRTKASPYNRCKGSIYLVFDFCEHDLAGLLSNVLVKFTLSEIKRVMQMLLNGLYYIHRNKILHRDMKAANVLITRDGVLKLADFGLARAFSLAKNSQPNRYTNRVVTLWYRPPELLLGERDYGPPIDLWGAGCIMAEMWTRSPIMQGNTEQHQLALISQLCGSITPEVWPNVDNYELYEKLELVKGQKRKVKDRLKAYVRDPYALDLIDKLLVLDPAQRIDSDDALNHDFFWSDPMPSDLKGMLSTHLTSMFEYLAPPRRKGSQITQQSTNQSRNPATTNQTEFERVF
T1 sequence (O60563 whole entry partner): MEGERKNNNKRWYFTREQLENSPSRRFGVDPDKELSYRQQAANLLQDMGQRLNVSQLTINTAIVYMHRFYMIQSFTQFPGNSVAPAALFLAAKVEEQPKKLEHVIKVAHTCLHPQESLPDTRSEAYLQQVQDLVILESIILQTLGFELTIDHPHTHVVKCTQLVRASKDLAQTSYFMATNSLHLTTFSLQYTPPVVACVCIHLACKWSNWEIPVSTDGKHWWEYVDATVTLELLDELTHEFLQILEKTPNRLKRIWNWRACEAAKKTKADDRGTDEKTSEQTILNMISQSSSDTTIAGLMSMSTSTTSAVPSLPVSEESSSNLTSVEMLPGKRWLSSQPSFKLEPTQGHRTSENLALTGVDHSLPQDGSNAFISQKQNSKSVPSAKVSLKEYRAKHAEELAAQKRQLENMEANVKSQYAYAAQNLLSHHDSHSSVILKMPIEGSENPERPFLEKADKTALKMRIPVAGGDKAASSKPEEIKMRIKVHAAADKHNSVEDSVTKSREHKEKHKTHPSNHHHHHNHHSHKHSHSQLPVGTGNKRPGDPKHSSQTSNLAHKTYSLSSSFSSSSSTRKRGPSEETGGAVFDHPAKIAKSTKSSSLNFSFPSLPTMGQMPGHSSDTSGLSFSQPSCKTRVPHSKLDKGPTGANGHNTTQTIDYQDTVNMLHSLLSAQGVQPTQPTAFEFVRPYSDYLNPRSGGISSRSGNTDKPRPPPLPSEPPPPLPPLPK
Description: www.impactjournals.com/oncotarget/ Oncotarget, Supplementary Materials 2017
Supplementary Figure 2: Activity of CDK9/CycT1 in the presence of SEL120-34A. […]

CDK2/CycA2 = CDK2/CycA2 (Homo sapiens, UniProt P24941); assay: CDK family single point inhibition assay; assay type: biochemical; conditions: Km ATP
CDK2/CycE1 = CDK2/CycE1 (Homo sapiens, UniProt P24941); assay: CDK family single point inhibition assay; assay type: biochemical; conditions: Km ATP
Oci-AML5 = assay: Extended viability test (AlamarBlue); assay type: cell-based; conditions: Homo sapiens, OCI-AML-5; extended viability assay
STAT1 S727 = assay: IFN-dependent STAT1 S727 phosphorylation in HCT-116 cells (WB); assay type: cell-based; conditions: IFNa or IFNg for 4 hours, increasing concentrations
Method: (B) SEL120-34A inhibits IFN-dependent phosphorylation of STAT1 S727. HCT-116 cells stimulated with IFNg for 4 h were treated with increasing doses of SEL120-34A, Flavopiridol (F) or vehicle DMSO (C) to determine changes in the phosphorylation of STAT1 S727 and Y701, as measured by WB. (*) unspecific band. (C) SEL120-34A inhibits serine phosphorylation of STAT1 S727 and STAT5 S726, whereas Ruxolitinib inhibits tyrosine phosphorylation of STAT1 Y701 and STAT5 Y694 in JAK2 V617F cells. SET-2 cells were treated with Ruxolitinib, SEL120-34A or vehicle DMSO (C) for 24 hours and protein levels of pS727, pY701 STAT1 and pS726, pY694 STAT5 were measured by WB. […]
0,1% SDS; 20 mM β-glicerol phosphate; 5 mM NaF; cat. # sc835), α-STAT5-pS726 (1:1000; Abcam, cat. # 1 mM Na3VO4) supplemented with protease inhibitors ab128896), α-STAT5-pY694 (1:1000; Cell Signaling, (Santa Cruz Biotechnology). […] Protein concentration in lysates (1:20000; Sigma, cat. # G9545) was measured by the Bradford assay and adjusted to achieve the same final concentration in each well (20-30 mRNA extraction from xenograft tissue μg protein/well). […] Prior to microarray analyses, the quality of the incubation with secondary donkey anti-rabbit antibodies RNA samples was determined using an Agilent 2100 conjugated to HRP, used at 1:4000 (Cell Signaling, Bioanalyzer (Agilent Technologies, CA, USA). […]

CDK8/CycC [1] = molecular target: T2, CDK8/CycC (Homo sapiens, UniProt P49336); assay: CDK8 Eu kinase binding assay (LanthaScreen TR-FRET); set-up: purchased ProQinase; conditions: read-out: dissociation constant (Kd) for the CDK8 protein
T2 sequence (P49336 whole entry): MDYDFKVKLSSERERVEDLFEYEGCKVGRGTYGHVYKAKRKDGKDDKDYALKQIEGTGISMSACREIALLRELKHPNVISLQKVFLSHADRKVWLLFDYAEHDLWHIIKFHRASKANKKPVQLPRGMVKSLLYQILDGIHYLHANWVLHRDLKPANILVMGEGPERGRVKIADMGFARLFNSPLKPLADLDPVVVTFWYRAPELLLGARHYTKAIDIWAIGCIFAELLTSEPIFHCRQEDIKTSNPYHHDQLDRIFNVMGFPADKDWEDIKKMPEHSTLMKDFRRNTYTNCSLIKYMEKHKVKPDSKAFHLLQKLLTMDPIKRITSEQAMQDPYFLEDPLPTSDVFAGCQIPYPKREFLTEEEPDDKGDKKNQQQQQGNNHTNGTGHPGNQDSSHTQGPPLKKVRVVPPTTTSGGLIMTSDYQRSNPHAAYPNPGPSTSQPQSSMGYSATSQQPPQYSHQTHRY
T2 sequence (P24863 whole entry partner): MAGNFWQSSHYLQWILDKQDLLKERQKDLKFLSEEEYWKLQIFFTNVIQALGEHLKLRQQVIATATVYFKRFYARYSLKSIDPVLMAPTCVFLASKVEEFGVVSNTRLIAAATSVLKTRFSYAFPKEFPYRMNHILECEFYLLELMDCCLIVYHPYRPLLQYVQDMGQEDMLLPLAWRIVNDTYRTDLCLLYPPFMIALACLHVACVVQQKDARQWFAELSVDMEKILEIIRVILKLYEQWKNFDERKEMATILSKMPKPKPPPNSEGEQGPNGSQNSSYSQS

CDK8/CycC [2] = molecular target: T2, CDK8/CycC; assay: Radiometric protein kinase assay (PanQinase, ProQinase)

For `Cc1c(Br)c(Br)c2c3c1nc(N1CCNCC1)n3CCC2` [SEL120-34A], the remaining activity at 1 µM (CDK9/CycT1; mean, read-out: % remaining activity @1μM CDK9/CycT1 Mean) was 15%, the remaining activity at 1 µM (CDK9/CycT1; repeat 1, read-out: % remaining activity @1μM CDK9/CycT1 repeat 1) was 14% and the remaining activity at 1 µM (CDK9/CycT1; repeat 2, read-out: % remaining activity @1μM CDK9/CycT1 repeat 2) was 16%. The IC50 (CDK9/CycT1; CDK9/CycT1, Km ATP concentration) was 1070 nM, the “selectivity against CDK9” value (CDK9/CycT1; versus CDK8) was “over 200 fold” and the remaining activity at 1 µM (CDK2/CycA2; mean, read-out: % remaining activity @1μM CDK2/CycA2 Mean) was 60%. For the same compound, the remaining activity at 1 µM (CDK2/CycA2; repeat 1, read-out: % remaining activity @1μM CDK2/CycA2 repeat 1) was 57%, the remaining activity at 1 µM (CDK2/CycA2; repeat 2, read-out: % remaining activity @1μM CDK2/CycA2 repeat 2) was 62% and the remaining activity at 1 µM (CDK2/CycE1; mean, read-out: % remaining activity @1μM CDK2/CycE1 Mean) was 63%. The remaining activity at 1 µM (CDK2/CycE1; repeat 1, read-out: % remaining activity @1μM CDK2/CycE1 repeat 1) was 64%, the remaining activity at 1 µM (CDK2/CycE1; repeat 2, read-out: % remaining activity @1μM CDK2/CycE1 repeat 2) was 63% and the GI50 (Oci-AML5) was 30 nM. The “STAT1 S727 phosphorylation” value (STAT1 S727) was “dose-depended inhibition”, the Kd (CDK8/CycC [1]) was 3 nM and the IC50 (CDK8/CycC [2]) was 4.4 nM. For the same compound, the remaining activity at 1 µM (CDK8/CycC [2]; read-out: % remaining activity @1μM CDK8/CycC Mean) was 2%, the remaining activity at 1 µM (CDK8/CycC [2]; read-out: % remaining activity @1μM CDK8/CycC repeat 1) was 3% and the remaining activity at 1 µM (CDK8/CycC [2]; read-out: % remaining activity @1μM CDK8/CycC repeat 2) was 1%.
